Data reported in patent publication US20040265836A1, “Methods for the identification of inhibitors of C4 Long Chain Base Hydroxylase activity in plants” (priority 2003, published 2004).

Tests used:
[1] = tested on: yeast strain PGY31 (sur2 mutant expressing the truncated form of C4-LCBH); test: Syringomycin E sensitivity growth assay, sur2 mutant expressing truncated Arabidopsis LCBH (PGY31); type: cell-based, Saccharomyces cerevisiae; settings: PGY31 in rich medium supplemented with galactose; 5 μl of approximately 14-fold concentrated Syringomycin E-containing fraction dried in well of 384-well plate
Source text: (§1) Syringomycin E is not a commercially available antibiotic and was, therefore, purified from the bacterium Pseudomonas syringae pv. syringae according to the method of (Bidwai & Zhang et al., 83 Plant Physiol 39-43 (1987)). Briefly, stationary-phase liquid cultures of P. syringae pv. syringae were extracted with acidified acetone and fractionated over an Amberlite XAD-2 (Sigma) column using a linear gradient of 0.1% trifluoroacetic acid/0.1% trifluoroacetic acid in 2-propanol. Each fraction was assayed for ability to inhibit growth of wild type (PGY8) and sur2 (PGY29) yeast strains. For the assay, 10 ml fractions were collected and 50 μl of each fraction was applied a 96-well plate and dried in a vacuum concentrator. […] of rich medium containing mid-logarithmic PGY8 or PGY29 at a cell density of 10^5 cells/ml were applied to each well. Growth was monitored after 18 hours by determining the absorbance at 600 nm. Syringomycin E-containing fractions were identified as those that inhibited growth of PGY8 but not of PGY29.
(§2) The ability of the amino-terminal truncated Arabidopsis LCBH to confer Syringomycin E sensitivity on the yeast sur2 mutant was determined as follows. […] 100 μl of yeast strains PGY8 and PGY29 in rich medium, or PGY31 in rich medium supplemented with galactose were added to each well and growth was monitored at 600 nm.

Wild-type yeast strains = settings: cited from earlier work
sur2 mutants = settings: cited from earlier work
[2] = tested on: yeast strain PGY29 (sur2); test: Syringomycin E sensitivity growth assay, sur2 mutant strain PGY29; type: cell-based, Saccharomyces cerevisiae; settings: PGY29 in rich medium; 5 μl of approximately 14-fold concentrated Syringomycin E-containing fraction dried in well of 384-well plate
Source text: as §1, §2

[3] = tested on: yeast strain PGY8 (wild type); test: Syringomycin E sensitivity growth assay, wild type yeast strain PGY8; type: cell-based, Saccharomyces cerevisiae; settings: PGY8 in rich medium; 5 μl of approximately 14-fold concentrated Syringomycin E-containing fraction dried in well of 384-well plate
Source text: as §1, §2

For Syringomycin E, the “Growth in the presence of Syringomycin E (monitored at 600 nm)” value (shortened to “Growth … (monitored at 600 nm)”) [1] is listed as “completely inhibited”, the “Sensitivity to syringomycin E” value (Wild-type yeast strains) is listed as “sensitive” and the “Growth in the presence of syringomycin E” value (sur2 mutants) is listed as “able to grow”. The “Growth … (monitored at 600 nm)” value [2] was “able to grow” and the “Growth … (monitored at 600 nm)” value [3] was “completely inhibited”.
